From patent US6603046B1, “Bis-aromatic a,β-unsaturated ketones” (Lica Pharmaceuticals A/S, priority 1992, dated 2003)
Like-named read-outs stand apart in the source and are kept apart here. Marks after values point to notes of the source that are not given here.

How the values were obtained:
[1] = system: chloroquine resistant P. falciparum DD2 strain; test: In vitro growth of P. falciparum DD2, 3H-hypoxanthine uptake (Example 15); assay type: cell-based, Plasmodium falciparum; details: title: percentage inhibition of 3H-hypoxanthine uptake
[2] = system: P. yoelii strain YM; test: P. yoelii strain YM infection in mice, parasitemia and mortality (Example 16); assay type: in vivo, BALB/c mice; details: Table 16.12
[3] = system: Eimeria tenella; test: Anticoccidial activity in chickens infected with Eimeria tenella (Example 28); assay type: in vivo; details: for feed consumption after 7 days of treatment / feed consumption after 14 days of treatment: amount of feed consumed per kg chicken weight gain, doses as Table 28.1; for Weight gain in 7 days after initiation of treatment / Weight gain in 14 days after initiation of treatment: in feed: salinomycin 70 ppm, 2,5 m4′ac and 2,4 mc 30 mg/kg/day, licochalcone A 10 mg/kg/day; for Mortality: number of chickens, groups of 35, licochalcone A 20
[4] = system: L. major promastigotes; test: L. major promastigotes from 4-days cultures, 3H-thymidine uptake (Examples 5, 14); assay type: cell-based, Leishmania major; details: Leishmania major, Table 14.1, read-out: percentage inhibition of promastigotes (upper figure); for inhibition at 0.5 µg/mL: 0.5 μg/ml; for inhibition at 1 µg/mL: 1 μg/ml; for inhibition at 5 µg/mL: 5 μg/ml; for inhibition at 10 µg/mL: 10 μg/ml
Description: Parasite cultures. The same parasite culture as described in Example 4. Promastigotes were harvested on day 4 of the culture and used for the parasiticidal assay.
Effect on promastigotes. […] Following incubation, […] of ^3H-thymidine was added to each well and further incubated for 18 hrs. Promastigotes were then harvested on filter paper by means of a cell harvester (Skatron, Lierbyen, Norway), extensively washed with distilled water and counted in a scintillation counter (Minaxi Ti-Carb 4000, United Technologies, Packard, USA).
L. major promastigotes. The L. major promastigotes were prepared as described in Example 4 and harvested after 4 days.

[5] = system: P. falciparum; test: P. falciparum growth in vitro (Table 14.1, strain not stated); assay type: cell-based; details: Plasmodium falciparum; for inhibition at 1 µg/mL: 1 μg/ml; for inhibition at 10 µg/mL: 10 μg/ml
Description: The P. falciparum experimental setup was as described in Example 15.
Testing of the effect of drugs and serum on the in vitro growth of the parasites. The experiments in which compounds were tested for their ability to inhibit parasite growth were performed by a modification of the method originally described by Jensen et al. (1982). Fifty μl of parasitized erythrocytes (parasitemia approximately 1%) in a concentration of 5×10^8/ml and 50 μl of RPMI medium containing different concentrations of the test compound was added to each well of a 96 well flat-bottomed microtiter plate (Nunc). The cultures were then incubated for 48 hours, 24 hours before termination of the culture adding 20 μl of 3-H-hypoxanthine (40 uCi/ml) (New England Nuclear, Boston, Mass., USA) was added to each well. The cultures were then harvested onto glass fiber filters using a Skatron cell harvester (Skatron, Lierbyen, Norway), and the incorporation of 3-H-hypoxanthine into the DNA of dividing parasites was determined by liquid scintillation spectrometry.

[6] = system: human lymphocytes; test: Lymphocyte Proliferation Assay, 3H-thymidine incorporation (Example 13); details: Homo sapiens, Lymphocyte, read-out: inhibition of lymphocytes (lower figure)
[7] = D + 6, i.p. 10 mg/kg twice daily
[8] = D + 6, i.p. 20 mg/kg twice daily
[9] = D + 6, i.p. 30 mg/kg twice daily
[10] = D + 6, i.p. 40 mg/kg twice daily
[11] = D + 8, i.p. 20 mg/kg twice daily
[12] = D + 8, i.p. 30 mg/kg twice daily
[13] = D + 10, i.p. 30 mg/kg twice daily
[14] = D + 5, i.p. 40 mg/kg twice daily
[15] = read-out: inhibition of malaria parasites (middle figure)
[16] = 0.5 μg/ml, read-out: inhibition of malaria parasites (middle figure) (converted)
[17] = read-out: inhibition of malaria parasites (middle figure) (converted)
[18] = 5 μg/ml, read-out: inhibition of malaria parasites (middle figure) (converted)

Structure (SMILES): C=CCOc1ccc(C(=O)/C=C/c2cc(OC)ccc2OC)cc1 [2,5-Dimethoxy-4′-allyloxychalcone, 2,5-dimethoxy-4′-prop-2enyloxychalcone]
- Growth in % of control (mean ± SEM) ([1]; 0.5 μg/ml): 15.8 ± 13.2%
- Growth in % of control (mean ± SEM) ([1]; 1 μg/ml): 12.1 ± 13.7%
- Growth in % of control (mean ± SEM) ([1]; 5 μg/ml): 45.3 ± 7.2%
- Growth in % of control (mean ± SEM) ([1]; 10 μg/ml): 74.4 ± 4.4%
- mortality (no. of dead mice/total no. of tested mice) [2, 7]: (5/5)
- % parasitemia [2, 8]: 79%
- mortality (no. of dead mice/total no. of tested mice) [2, 8]: 4/5
- % parasitemia [2, 9]: 62%
- mortality (no. of dead mice/total no. of tested mice) [2, 9]: 3/5
- mortality (no. of dead mice/total no. of tested mice) [2, 10]: (5/5)
- mortality (no. of dead mice/total no. of tested mice) [2, 11]: (5/5)
- % parasitemia [2, 12]: 78%
- mortality (no. of dead mice/total no. of tested mice) [2, 12]: 4/5
- mortality (no. of dead mice/total no. of tested mice) [2, 13]: (5/5)
- feed consumption after 7 days of treatment [3]: 1.31
- feed consumption after 14 days of treatment [3]: 1.54
- Weight gain in 7 days after initiation of treatment [3]: 366 grams per chicken
- Weight gain in 14 days after initiation of treatment [3]: 804^ grams per chicken
- Mortality [3]: 2

Structure (SMILES): COc1ccc(/C=C/C(=O)c2ccccc2)c(OC)c1 [2,4mc, 2,4-dimethoxychalcone]
- % parasitemia [2, 14]: 78%
- mortality (no. of dead mice/total no. of tested mice) [2, 14]: 4/5
- mortality (no. of dead mice/total no. of tested mice) [2, 7]: (5/5)
- % parasitemia [2, 8]: 85%
- mortality (no. of dead mice/total no. of tested mice) [2, 8]: 4/5
- % parasitemia [2, 9]: 29%
- mortality (no. of dead mice/total no. of tested mice) [2, 9]: 3/5
- mortality (no. of dead mice/total no. of tested mice) [2, 10]: (5/5)
- mortality (no. of dead mice/total no. of tested mice) [2, 11]: (5/5)
- % parasitemia [2, 12]: 15%
- mortality (no. of dead mice/total no. of tested mice) [2, 12]: 4/5
- % parasitemia [2, 13]: 65%
- mortality (no. of dead mice/total no. of tested mice) [2, 13]: 4/5
- mortality (no. of dead mice/total no. of tested mice) ([2]; D + 12, i.p. 30 mg/kg twice daily): (5/5)
- feed consumption after 7 days of treatment [3]: 1.30
- feed consumption after 14 days of treatment [3]: 1.48
- Weight gain in 7 days after initiation of treatment [3]: 380 grams per chicken
- Weight gain in 14 days after initiation of treatment [3]: 803^ grams per chicken
- Mortality [3]: 1

Structure (SMILES): COc1ccc(/C=C/C(=O)c2ccccc2)c(OC)c1 [drawing 67]
- inhibition at 0.5 µg/mL [4]: 14.5 ± 11.6%
- inhibition at 1 µg/mL [4]: 27 ± 13.7%
- inhibition at 5 µg/mL [4]: 77.8 ± 11.3%
- inhibition at 10 µg/mL [4]: 95.5 ± 3.8%
- inhibition at 5 µg/mL [5, 15]: 35.6%
- inhibition at 0.5 µg/mL [5, 16]: 0%
- inhibition at 1 µg/mL [5, 17]: 14.7%
- inhibition at 10 µg/mL [5, 17]: 81.8%
- inhibition at 0.5 µg/mL [6]: 9.1%
- inhibition at 1 µg/mL [6]: 9.2%
- inhibition at 5 µg/mL [6]: 2%
- inhibition at 10 µg/mL [6]: 3.1%

Structure (SMILES): COc1cccc(OC)c1/C=C/C(=O)c1ccc(O)cc1
- inhibition at 0.5 µg/mL [4]: 11.4 ± 9.2%
- inhibition at 1 µg/mL [4]: 21.5 ± 10.6%
- inhibition at 5 µg/mL [4]: 77.5 ± 4.3%
- inhibition at 10 µg/mL [4]: 93.1 ± 4.6%
- inhibition at 0.5 µg/mL [5, 16]: 0%
- inhibition at 1 µg/mL [5, 17]: 16.6%
- inhibition at 5 µg/mL [5, 18]: 71%
- inhibition at 10 µg/mL [5, 17]: 90.6%
- inhibition at 0.5 µg/mL [6]: 0%
- inhibition at 1 µg/mL [6]: 3.3%
- inhibition at 5 µg/mL [6]: 2.3%
- inhibition at 10 µg/mL [6]: 4.4%

Structure (SMILES): C=CCOc1ccc(C(=O)/C=C/c2c(OC)cccc2OC)cc1 [drawing 83]
- inhibition at 0.5 µg/mL [4]: 11.3 ± 9.8%
- inhibition at 1 µg/mL [4]: 16.3 ± 12.4%
- inhibition at 5 µg/mL [4]: 63.7 ± 24.2%
- inhibition at 10 µg/mL [4]: 91.1 ± 4.1%
- inhibition at 0.5 µg/mL [5, 16]: 0%
- inhibition at 1 µg/mL [5, 17]: 27.4%
- inhibition at 5 µg/mL [5, 18]: 39.7%
- inhibition at 10 µg/mL [5, 17]: 65.7%
- inhibition at 0.5 µg/mL [6]: 1%
- inhibition at 1 µg/mL [6]: 1.3%
- inhibition at 5 µg/mL [6]: 0%
- inhibition at 10 µg/mL [6]: 0%

Structure (SMILES): CC[C@@H](C(=O)[C@@H](C)[C@@H](O)[C@H](C)[C@@H]1O[C@@H]([C@@H](CC)C(=O)O)CC[C@@H]1C)[C@H]1O[C@]2(C=C[C@@H](O)[C@]3(CC[C@@](C)([C@H]4CC[C@](O)(CC)[C@H](C)O4)O3)O2)[C@H](C)C[C@@H]1C [salinomycin, reference compound]
- feed consumption after 7 days of treatment [3]: 1.30
- feed consumption after 14 days of treatment [3]: 1.44
- Weight gain in 7 days after initiation of treatment [3]: 425 grams per chicken
- Weight gain in 14 days after initiation of treatment [3]: 900^a grams per chicken
- Difference in weight gain to group 5 (control infected) after treatment for 14 days ([3]; normal variation ±2%): ^aDifference between groups 1 (standard feed) and 5 (control infected) after treatment for 14 days is 12%.
- Mortality [3]: 0

Structure (SMILES): COc1ccc(OC)c(/C=C/C(=O)c2ccc(O)cc2)c1 [drawing 71]
- inhibition at 0.5 µg/mL [4]: 34.3%
- inhibition at 1 µg/mL [4]: 61.9%
- inhibition at 5 µg/mL [4]: 96.2%
- inhibition at 10 µg/mL [4]: 99.1%
- inhibition at 0.5 µg/mL [5, 16]: 15.2%
- inhibition at 1 µg/mL [5, 17]: 23.1%
- inhibition at 5 µg/mL [5, 18]: 71%
- inhibition at 10 µg/mL [5, 17]: 93.1%
- inhibition at 0.5 µg/mL [6]: 3.2%
- inhibition at 1 µg/mL [6]: 6.9%
- inhibition at 5 µg/mL [6]: 78.8%
- inhibition at 10 µg/mL [6]: 98.2%

Structure (SMILES): C=CCOc1ccc(C(=O)/C=C/c2cc(OC)ccc2OC)cc1 [drawing 78]
- inhibition at 0.5 µg/mL [4]: 10 ± 9.7%
- inhibition at 1 µg/mL [4]: 15.6 ± 15.1%
- inhibition at 5 µg/mL [4]: 63 ± 15.1%
- inhibition at 10 µg/mL [4]: 89.4 ± 10.2%
- inhibition at 0.5 µg/mL [5, 16]: 0%
- inhibition at 1 µg/mL [5, 17]: 0%
- inhibition at 5 µg/mL [5, 18]: 35%
- inhibition at 10 µg/mL [5, 17]: 80%
- inhibition at 0.5 µg/mL [6]: 5.7%
- inhibition at 1 µg/mL [6]: 12.6%
- inhibition at 5 µg/mL [6]: 4.3%
- inhibition at 10 µg/mL [6]: 2.3%

Structure (SMILES): C=CCOc1ccc(C(=O)/C=C/c2cc(OC)cc(OC)c2)cc1 [drawing 85]
- inhibition at 0.5 µg/mL [4]: 10.6 ± 10.7%
- inhibition at 1 µg/mL [4]: 27.6 ± 23.3%
- inhibition at 5 µg/mL [4]: 82.8 ± 10%
- inhibition at 10 µg/mL [4]: 98.3 ± 0.9%
- inhibition at 0.5 µg/mL [5, 16]: 13.8%
- inhibition at 1 µg/mL [5, 17]: 15.3%
- inhibition at 5 µg/mL [5, 18]: 74.3%
- inhibition at 10 µg/mL [5, 17]: 98.6%
- inhibition at 0.5 µg/mL [6]: 0%
- inhibition at 1 µg/mL [6]: 0%
- inhibition at 5 µg/mL [6]: 4.6%
- inhibition at 10 µg/mL [6]: 25.4%

Structure (SMILES): C=CCOc1ccc(C(=O)/C=C/c2ccc(OC)c(OC)c2)cc1 [drawing 84]
- inhibition at 0.5 µg/mL [4]: 15.2 ± 11.3%
- inhibition at 1 µg/mL [4]: 30.4 ± 23.2%
- inhibition at 5 µg/mL [4]: 70.4 ± 15.2%
- inhibition at 10 µg/mL [4]: 90.8 ± 9.7%
- inhibition at 0.5 µg/mL [5, 15]: 2.9%
- inhibition at 1 µg/mL [5, 17]: 11.4%
- inhibition at 5 µg/mL [5, 18]: 22.8%
- inhibition at 10 µg/mL [5, 17]: 68%
- inhibition at 1 µg/mL [6]: 0%
- inhibition at 5 µg/mL [6]: 0%
- inhibition at 10 µg/mL [6]: 15.6%
